This note sets out measurements from patent publication US12337005B2, “Methods of treating thrombosis” (UNIVERSITY OF IOWA RESEARCH FOUNDATION, priority 2020, dated 2025).

One experiment relates to murine platelets. Description: P-selectin expression (α-granule secretion), mouse platelets. It is filed as cell-based. The following applies: stimulus-activated mouse platelets pretreated with ML265. The procedure: Platelets (1×10^8 cells in 100 μl) were pre-incubated for 10 min either in presence or absence of ML265 (50 and 100 μM) then stimulated by convulxin or TRAP without stirring. Following this, platelets were labeled with PE-labeled anti-CD61 antibody and FITC conjugated anti-CD62P antibody. The platelet samples were incubated for 30 min in the dark at room temperature and analyzed on the flow cytometer (FACS Calibur, Becton Dickinson). An amorphous region (gate) was drawn to differentiate the platelets from the noise and multi-platelet particles. After compensation for FITC and PE, CD61-positive 10,000 events were collected for each sample.

A further experiment has as its system human platelets. Description: Thromboxane (TxB2) assay, human platelets. It is filed as cell-based. The following applies: convulxin-stimulated human platelets pre-treated with ML265. The procedure: The TxB2 assay was done. Briefly, PRP or washed platelets (2×10^8 platelets/mL) was stimulated with convulxin or thrombin for 3 minutes utilizing an aggregometer, and the reaction was stopped by quickly freezing the sample in a dry ice-methanol bath. Before performing the TXB2 measurement assay, samples were thawed and centrifuged at 15,000 g for 3 minutes. The supernatants were diluted 1:50 with assay buffer and levels of TxB2 (a stable metabolite of TxA2) were determined in triplicate using an immunoassay kit (Abcam Thromboxane B2 enzyme-linked immunosorbent assay kit) according to the manufacturer's instructions.

For `Cn1c2cc([S+](C)[O-])sc2c2cnn(Cc3cccc(N)c3)c(=O)c21` (centres unmarked) [ML265, 6-[(3-aminophenyl)methyl]-4,6-dihydro-4-methyl-2-(methylsulfinyl)-5H-thieno[2′,3′:4,5]pyrrolo[2,3-d]pyridazine-5-one], in the experiment on murine platelets, the “α-granule secretion (P-selectin exposure)” value is “significant decrease”. In addition, the “levels of TxB2 (stable metabolite of TxA2)” value in the experiment on human platelets is reported as “reduced”.
